Data taken from PMC4685510, “A Cell Biologist’s Field Guide to Aurora Kinase Inhibitors” (Frontiers in Oncology, 2015).
Where two headings read alike, the source gives them in different places.

Legend:
Assay in all cases: biochemical
Format in all cases: biochemical
[1] = molecular target: 363 human kinases (including Aurora A/B/C) (Homo sapiens, UniProt Q00535); settings: for remaining activity at 0.1 µM: 100 nM; for remaining activity at 0.1 µM / remaining activity at 0.5 µM: read-out: % Enzyme Activity (relative to DMSO controls); for remaining activity at 0.5 µM / % Enzyme Activity (relative to DMSO controls): 500 nM
Source text: (§1) However, the Aurora A/B selectivity ratios derived from our in vitro and in vivo data can be compared to prioritize inhibitors.

[2] = molecular target: 363 human kinases (including Aurora A/B/C) (Homo sapiens, UniProt Q9H4A3); settings: WNK1; for remaining activity at 0.1 µM: 100 nM; for remaining activity at 0.1 µM / remaining activity at 0.5 µM: read-out: % Enzyme Activity (relative to DMSO controls)
Source text: as §1

[3] = molecular target: T1, 363 human kinases (including Aurora A/B/C) (Homo sapiens, UniProt P53778); settings: P38g; for remaining activity at 0.1 µM: 100 nM; for remaining activity at 0.1 µM / remaining activity at 0.5 µM: read-out: % Enzyme Activity (relative to DMSO controls)
T1 sequence (P53778 1-367): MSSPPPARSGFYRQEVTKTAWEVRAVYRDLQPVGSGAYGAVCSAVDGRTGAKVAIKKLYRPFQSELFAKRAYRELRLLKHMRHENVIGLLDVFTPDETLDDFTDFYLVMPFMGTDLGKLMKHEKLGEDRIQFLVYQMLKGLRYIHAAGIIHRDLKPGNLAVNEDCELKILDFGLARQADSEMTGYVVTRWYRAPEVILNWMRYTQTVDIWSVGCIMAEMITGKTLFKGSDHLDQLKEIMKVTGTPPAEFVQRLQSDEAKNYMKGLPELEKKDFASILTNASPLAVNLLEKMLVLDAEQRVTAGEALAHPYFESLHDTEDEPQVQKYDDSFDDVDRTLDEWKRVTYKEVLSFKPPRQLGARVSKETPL
Source text: as §1

[4] = molecular target: 363 human kinases (including Aurora A/B/C) (Homo sapiens, UniProt P11309); settings: PIM1; for remaining activity at 0.1 µM: 100 nM; for remaining activity at 0.1 µM / remaining activity at 0.5 µM: read-out: % Enzyme Activity (relative to DMSO controls)
Source text: as §1

[5] = molecular target: 363 human kinases (including Aurora A/B/C) (Homo sapiens, UniProt Q9Y6M4); settings: CK1g3, [ATP] 10 µM; for remaining activity at 0.1 µM: 100 nM; for remaining activity at 0.1 µM / remaining activity at 0.5 µM: read-out: % Enzyme Activity (relative to DMSO controls)
Source text: as §1

[6] = molecular target: 363 human kinases (including Aurora A/B/C) (Homo sapiens, UniProt P17948); settings: FLT1/VEGFR1, [ATP] 2.5 µM; for remaining activity at 0.1 µM: 100 nM; for remaining activity at 0.1 µM / remaining activity at 0.5 µM: read-out: % Enzyme Activity (relative to DMSO controls)
Source text: as §1

[7] = molecular target: T2, 363 human kinases (including Aurora A/B/C) (Homo sapiens, UniProt P29322); settings: EPHA8, [ATP] 100 µM; for remaining activity at 0.1 µM: 100 nM; for remaining activity at 0.1 µM / remaining activity at 0.5 µM: read-out: % Enzyme Activity (relative to DMSO controls)
T2 sequence (P29322 28-1005): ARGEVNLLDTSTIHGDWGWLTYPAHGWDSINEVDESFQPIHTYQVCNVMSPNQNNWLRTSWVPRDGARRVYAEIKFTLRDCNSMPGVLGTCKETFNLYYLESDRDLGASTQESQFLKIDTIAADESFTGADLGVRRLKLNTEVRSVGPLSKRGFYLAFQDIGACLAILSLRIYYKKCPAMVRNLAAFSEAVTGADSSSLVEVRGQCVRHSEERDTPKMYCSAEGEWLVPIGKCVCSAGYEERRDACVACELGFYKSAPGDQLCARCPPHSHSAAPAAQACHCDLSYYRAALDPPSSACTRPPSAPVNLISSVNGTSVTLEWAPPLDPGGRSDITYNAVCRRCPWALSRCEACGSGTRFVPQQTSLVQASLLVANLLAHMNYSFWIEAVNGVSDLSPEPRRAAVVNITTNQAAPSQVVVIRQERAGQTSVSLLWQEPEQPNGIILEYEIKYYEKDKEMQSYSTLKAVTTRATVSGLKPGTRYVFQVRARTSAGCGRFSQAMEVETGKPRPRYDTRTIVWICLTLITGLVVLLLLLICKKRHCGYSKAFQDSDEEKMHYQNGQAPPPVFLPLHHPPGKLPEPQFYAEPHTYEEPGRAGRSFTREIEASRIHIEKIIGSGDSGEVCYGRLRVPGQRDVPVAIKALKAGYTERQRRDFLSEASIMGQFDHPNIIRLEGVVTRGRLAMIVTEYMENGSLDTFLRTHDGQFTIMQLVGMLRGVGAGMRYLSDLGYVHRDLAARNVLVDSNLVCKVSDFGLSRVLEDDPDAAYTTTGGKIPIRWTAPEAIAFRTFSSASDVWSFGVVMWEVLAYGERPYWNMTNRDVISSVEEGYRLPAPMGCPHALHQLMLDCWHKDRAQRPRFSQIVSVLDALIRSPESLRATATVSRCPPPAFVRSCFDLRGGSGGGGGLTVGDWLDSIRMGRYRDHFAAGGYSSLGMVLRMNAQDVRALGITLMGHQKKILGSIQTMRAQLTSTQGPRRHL
Source text: as §1

[8] = molecular target: 363 human kinases (including Aurora A/B/C) (Homo sapiens, UniProt Q8N5S9); settings: CAMKK1, [ATP] 5 µM; for remaining activity at 0.1 µM: 100 nM; for remaining activity at 0.1 µM / remaining activity at 0.5 µM: read-out: % Enzyme Activity (relative to DMSO controls)
Source text: as §1

[9] = molecular target: T3, 363 human kinases (including Aurora A/B/C) (Homo sapiens, UniProt Q9BZL6); settings: PKD2/PRKD2; for remaining activity at 0.1 µM: 100 nM; for remaining activity at 0.1 µM / remaining activity at 0.5 µM: read-out: % Enzyme Activity (relative to DMSO controls)
T3 sequence (Q9BZL6 1-878): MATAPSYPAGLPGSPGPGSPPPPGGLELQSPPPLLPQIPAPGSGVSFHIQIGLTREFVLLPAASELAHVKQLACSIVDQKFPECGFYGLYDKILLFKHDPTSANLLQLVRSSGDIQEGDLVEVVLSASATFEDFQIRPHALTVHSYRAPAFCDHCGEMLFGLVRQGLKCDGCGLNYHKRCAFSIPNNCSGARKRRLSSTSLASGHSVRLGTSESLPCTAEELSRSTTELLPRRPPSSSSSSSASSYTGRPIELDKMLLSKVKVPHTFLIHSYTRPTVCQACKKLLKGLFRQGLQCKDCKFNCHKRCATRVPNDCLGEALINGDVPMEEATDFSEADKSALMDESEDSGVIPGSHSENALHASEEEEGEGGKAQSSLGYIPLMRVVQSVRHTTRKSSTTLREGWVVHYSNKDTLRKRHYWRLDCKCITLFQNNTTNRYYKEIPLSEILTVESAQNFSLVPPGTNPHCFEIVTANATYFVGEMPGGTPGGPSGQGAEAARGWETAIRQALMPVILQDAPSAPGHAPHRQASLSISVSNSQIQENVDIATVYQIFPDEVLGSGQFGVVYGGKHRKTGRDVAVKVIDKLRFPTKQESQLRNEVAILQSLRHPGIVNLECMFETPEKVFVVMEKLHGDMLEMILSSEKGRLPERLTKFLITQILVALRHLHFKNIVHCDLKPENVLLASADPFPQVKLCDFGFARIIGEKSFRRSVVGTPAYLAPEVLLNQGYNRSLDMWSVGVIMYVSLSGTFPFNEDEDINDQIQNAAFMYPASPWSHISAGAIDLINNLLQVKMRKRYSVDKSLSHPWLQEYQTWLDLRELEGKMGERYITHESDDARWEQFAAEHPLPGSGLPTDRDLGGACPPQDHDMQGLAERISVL
Source text: as §1

Sequence of 363 human kinases (including Aurora A/B/C) (Homo sapiens, UniProt Q00535) (Q00535 whole entry): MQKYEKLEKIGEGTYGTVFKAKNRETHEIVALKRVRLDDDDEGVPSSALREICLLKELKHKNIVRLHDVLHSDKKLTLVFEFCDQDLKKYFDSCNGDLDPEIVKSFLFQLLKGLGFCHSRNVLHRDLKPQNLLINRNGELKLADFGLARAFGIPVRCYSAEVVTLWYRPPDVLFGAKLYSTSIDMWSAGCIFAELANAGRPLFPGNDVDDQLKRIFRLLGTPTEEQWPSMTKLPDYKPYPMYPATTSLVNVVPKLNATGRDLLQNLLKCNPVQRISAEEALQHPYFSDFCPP
Sequence of 363 human kinases (including Aurora A/B/C) (Homo sapiens, UniProt Q9H4A3) (Q9H4A3 whole entry): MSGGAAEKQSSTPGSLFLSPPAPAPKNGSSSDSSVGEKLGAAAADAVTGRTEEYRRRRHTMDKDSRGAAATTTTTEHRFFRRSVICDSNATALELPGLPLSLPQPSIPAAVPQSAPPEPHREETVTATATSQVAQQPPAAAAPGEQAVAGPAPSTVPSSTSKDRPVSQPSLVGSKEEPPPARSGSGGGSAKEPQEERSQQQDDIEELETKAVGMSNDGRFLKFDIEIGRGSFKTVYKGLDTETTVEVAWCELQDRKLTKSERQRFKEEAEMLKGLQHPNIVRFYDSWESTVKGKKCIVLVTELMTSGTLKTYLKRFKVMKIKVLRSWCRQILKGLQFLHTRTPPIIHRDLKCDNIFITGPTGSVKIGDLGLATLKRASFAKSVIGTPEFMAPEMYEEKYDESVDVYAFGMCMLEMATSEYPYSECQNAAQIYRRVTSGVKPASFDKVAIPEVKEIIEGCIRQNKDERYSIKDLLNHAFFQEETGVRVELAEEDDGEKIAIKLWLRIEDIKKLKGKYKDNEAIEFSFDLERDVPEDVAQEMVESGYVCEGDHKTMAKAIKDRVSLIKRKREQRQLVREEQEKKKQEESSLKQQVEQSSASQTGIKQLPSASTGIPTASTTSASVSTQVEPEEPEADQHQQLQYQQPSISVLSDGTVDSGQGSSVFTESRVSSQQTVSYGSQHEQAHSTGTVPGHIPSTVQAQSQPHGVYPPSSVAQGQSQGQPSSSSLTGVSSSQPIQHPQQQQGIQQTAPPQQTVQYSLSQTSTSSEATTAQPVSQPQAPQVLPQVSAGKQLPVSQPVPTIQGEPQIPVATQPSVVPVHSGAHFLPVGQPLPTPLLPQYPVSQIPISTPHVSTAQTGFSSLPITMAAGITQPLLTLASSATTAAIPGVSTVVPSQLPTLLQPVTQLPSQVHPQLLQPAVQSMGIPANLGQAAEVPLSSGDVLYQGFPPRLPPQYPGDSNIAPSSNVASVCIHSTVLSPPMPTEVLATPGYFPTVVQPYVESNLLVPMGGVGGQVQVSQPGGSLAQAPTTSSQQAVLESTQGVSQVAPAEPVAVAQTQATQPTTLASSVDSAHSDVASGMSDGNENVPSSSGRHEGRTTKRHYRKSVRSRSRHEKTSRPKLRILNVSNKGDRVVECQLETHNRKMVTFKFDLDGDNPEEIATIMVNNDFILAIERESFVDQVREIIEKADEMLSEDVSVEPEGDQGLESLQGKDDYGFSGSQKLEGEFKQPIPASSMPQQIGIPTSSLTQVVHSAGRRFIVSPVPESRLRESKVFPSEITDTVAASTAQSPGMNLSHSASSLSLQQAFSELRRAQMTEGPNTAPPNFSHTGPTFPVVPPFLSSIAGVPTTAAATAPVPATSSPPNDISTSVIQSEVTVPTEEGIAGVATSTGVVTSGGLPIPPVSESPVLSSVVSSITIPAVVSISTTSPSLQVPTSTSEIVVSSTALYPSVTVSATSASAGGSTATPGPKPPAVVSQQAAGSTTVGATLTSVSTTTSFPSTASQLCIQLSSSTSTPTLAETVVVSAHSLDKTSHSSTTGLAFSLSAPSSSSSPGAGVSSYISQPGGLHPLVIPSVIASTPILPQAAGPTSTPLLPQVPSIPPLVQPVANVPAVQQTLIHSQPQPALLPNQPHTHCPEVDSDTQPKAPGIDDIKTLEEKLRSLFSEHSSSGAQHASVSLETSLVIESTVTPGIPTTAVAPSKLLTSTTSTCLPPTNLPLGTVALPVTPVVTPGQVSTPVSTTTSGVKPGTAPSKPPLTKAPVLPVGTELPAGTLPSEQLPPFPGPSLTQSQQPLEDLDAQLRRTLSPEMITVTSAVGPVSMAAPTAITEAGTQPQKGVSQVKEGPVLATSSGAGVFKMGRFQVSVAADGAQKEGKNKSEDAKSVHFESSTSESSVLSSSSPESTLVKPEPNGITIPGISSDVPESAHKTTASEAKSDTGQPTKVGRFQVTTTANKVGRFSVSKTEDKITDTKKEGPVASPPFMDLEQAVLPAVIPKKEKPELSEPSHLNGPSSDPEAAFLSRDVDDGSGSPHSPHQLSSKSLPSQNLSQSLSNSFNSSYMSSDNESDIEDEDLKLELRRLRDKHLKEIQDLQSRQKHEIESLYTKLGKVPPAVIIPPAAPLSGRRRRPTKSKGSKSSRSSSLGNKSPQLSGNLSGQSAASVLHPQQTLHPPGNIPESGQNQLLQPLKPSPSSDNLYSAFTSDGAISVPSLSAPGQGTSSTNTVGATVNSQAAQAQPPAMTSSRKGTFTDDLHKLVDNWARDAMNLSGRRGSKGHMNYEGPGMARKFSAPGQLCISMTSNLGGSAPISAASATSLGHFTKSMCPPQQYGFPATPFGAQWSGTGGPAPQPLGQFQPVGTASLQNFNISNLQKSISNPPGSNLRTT
Sequence of 363 human kinases (including Aurora A/B/C) (Homo sapiens, UniProt P11309) (P11309 whole entry): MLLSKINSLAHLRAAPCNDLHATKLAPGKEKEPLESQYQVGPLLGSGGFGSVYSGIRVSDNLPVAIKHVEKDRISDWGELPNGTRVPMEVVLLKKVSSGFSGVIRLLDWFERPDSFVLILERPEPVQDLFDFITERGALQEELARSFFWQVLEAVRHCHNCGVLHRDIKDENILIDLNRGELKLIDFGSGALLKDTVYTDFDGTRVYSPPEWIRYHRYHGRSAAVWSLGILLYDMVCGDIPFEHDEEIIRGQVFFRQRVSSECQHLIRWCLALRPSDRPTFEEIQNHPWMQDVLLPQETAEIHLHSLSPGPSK
Sequence of 363 human kinases (including Aurora A/B/C) (Homo sapiens, UniProt Q8N5S9) (Q8N5S9 whole entry): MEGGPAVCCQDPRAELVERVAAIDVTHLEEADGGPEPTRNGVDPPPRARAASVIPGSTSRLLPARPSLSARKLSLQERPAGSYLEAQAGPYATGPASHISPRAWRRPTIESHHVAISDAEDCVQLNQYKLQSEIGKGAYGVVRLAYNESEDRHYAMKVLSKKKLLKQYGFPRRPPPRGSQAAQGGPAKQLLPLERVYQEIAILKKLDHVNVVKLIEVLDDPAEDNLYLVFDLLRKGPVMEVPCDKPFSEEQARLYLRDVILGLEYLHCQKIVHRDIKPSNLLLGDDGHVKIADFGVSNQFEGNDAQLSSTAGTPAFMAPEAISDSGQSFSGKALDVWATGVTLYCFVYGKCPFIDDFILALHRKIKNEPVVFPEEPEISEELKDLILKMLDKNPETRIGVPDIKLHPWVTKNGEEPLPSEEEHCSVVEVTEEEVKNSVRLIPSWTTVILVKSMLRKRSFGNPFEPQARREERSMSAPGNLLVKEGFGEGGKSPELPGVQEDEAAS
Sequence of 363 human kinases (including Aurora A/B/C) (Homo sapiens, UniProt P17948) (P17948 27-1338): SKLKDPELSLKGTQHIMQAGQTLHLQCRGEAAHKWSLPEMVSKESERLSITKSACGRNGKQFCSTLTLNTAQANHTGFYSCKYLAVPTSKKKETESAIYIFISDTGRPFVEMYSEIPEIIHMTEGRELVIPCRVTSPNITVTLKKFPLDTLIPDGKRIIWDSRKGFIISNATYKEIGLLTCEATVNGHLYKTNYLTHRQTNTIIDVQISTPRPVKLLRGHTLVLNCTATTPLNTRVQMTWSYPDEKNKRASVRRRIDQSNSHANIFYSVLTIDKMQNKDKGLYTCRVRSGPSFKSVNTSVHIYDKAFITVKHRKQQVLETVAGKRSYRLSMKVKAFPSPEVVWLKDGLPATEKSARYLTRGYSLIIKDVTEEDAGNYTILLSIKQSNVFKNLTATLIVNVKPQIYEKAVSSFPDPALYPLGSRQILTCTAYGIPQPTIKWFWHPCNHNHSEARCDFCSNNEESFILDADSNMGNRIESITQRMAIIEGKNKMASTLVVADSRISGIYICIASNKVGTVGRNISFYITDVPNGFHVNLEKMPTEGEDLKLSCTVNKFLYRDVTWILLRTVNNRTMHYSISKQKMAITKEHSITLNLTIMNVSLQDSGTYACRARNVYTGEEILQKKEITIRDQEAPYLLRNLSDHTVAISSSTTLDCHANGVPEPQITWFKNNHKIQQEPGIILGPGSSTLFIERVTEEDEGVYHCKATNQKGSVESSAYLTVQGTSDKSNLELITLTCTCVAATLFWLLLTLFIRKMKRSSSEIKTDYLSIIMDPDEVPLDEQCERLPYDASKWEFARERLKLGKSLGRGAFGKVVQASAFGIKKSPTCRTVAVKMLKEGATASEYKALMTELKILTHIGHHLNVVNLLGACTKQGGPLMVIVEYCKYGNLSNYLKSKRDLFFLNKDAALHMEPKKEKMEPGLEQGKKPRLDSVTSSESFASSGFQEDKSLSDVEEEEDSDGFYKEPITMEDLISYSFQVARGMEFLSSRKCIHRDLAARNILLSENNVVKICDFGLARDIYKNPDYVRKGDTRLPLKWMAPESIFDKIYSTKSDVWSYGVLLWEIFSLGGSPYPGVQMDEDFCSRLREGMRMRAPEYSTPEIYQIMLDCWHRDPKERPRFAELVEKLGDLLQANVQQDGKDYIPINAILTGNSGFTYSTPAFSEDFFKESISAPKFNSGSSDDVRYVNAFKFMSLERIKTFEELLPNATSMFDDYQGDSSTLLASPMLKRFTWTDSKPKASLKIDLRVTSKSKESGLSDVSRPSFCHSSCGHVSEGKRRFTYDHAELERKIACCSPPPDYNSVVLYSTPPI

## CCn1cc(-c2ccnc3[nH]c(-c4cccc(CN(C)C)c4)cc23)c(-c2ccc(NC(=O)N(C)C)cc2)n1 [GSK1070916]
[1]; CDK5/p25, [ATP] 50 µM
  remaining activity at 0.1 µM: 91.8%
[1]; CDK5/p35, [ATP] 100 µM
  remaining activity at 0.1 µM: 111%
[2]
  remaining activity at 0.1 µM: 84.3%
[3]
  remaining activity at 0.1 µM: 115%
[4]
  remaining activity at 0.1 µM: 102%
[5]
  remaining activity at 0.1 µM: 95%
[6]
  remaining activity at 0.1 µM: 64.4%
[7]
  remaining activity at 0.1 µM: 92%
[8]
  remaining activity at 0.1 µM: 110%
[9]
  remaining activity at 0.1 µM: 93.3%

## O=C(O)[C@]1(Cc2cccc(Nc3nccs3)n2)CC[C@@H](Oc2cccc(Cl)c2F)CC1 [MK-5108]
[1]; CDK5/p25, [ATP] 50 µM
  remaining activity at 0.1 µM: 95.8%
  remaining activity at 0.5 µM: 75.3%
[1]; CDK5/p35, [ATP] 100 µM
  remaining activity at 0.1 µM: 95.7%
  remaining activity at 0.5 µM: 90%
[2]
  remaining activity at 0.1 µM: 94%
[2]; 500 nM
  remaining activity at 0.5 µM: 86.4%
[3]
  remaining activity at 0.1 µM: 100%
[3]; 500 nM
  remaining activity at 0.5 µM: 112%
[4]
  remaining activity at 0.1 µM: 92%
[4]; 500 nM
  remaining activity at 0.5 µM: 83.8%
[5]
  remaining activity at 0.1 µM: 100%
[5]; 500 nM
  remaining activity at 0.5 µM: 94.6%
[6]
  remaining activity at 0.1 µM: 58.4%
[6]; 500 nM
  remaining activity at 0.5 µM: 29.5%
[7]
  remaining activity at 0.1 µM: 88.7%
[7]; 500 nM
  remaining activity at 0.5 µM: 67.9%
[8]
  remaining activity at 0.1 µM: 108%
[8]; 500 nM
  remaining activity at 0.5 µM: 104%
[9]
  remaining activity at 0.1 µM: 98.5%
[9]; 500 nM
  remaining activity at 0.5 µM: 101%

## O=C(c1cccc(Cl)c1F)N1CCN(Cc2cccc(Nc3nccs3)n2)CC1 [MK-8745]
[1]; CDK5/p25, [ATP] 50 µM
  % Enzyme Activity (relative to DMSO controls): 87.84%
  remaining activity at 0.5 µM: 88.5%
[1]; CDK5/p35, [ATP] 100 µM
  % Enzyme Activity (relative to DMSO controls): 93.11%
  remaining activity at 0.5 µM: 94.6%
[2]; 500 nM
  % Enzyme Activity (relative to DMSO controls): 90.95%
  remaining activity at 0.5 µM: 91.3%
[3]; 500 nM
  % Enzyme Activity (relative to DMSO controls): 107.28%
  remaining activity at 0.5 µM: 110%
[4]; 500 nM
  % Enzyme Activity (relative to DMSO controls): 98.06%
  remaining activity at 0.5 µM: 101%
[5]; 500 nM
  % Enzyme Activity (relative to DMSO controls): 98.01%
  remaining activity at 0.5 µM: 98.6%
[6]; 500 nM
  % Enzyme Activity (relative to DMSO controls): 90.99%
  remaining activity at 0.5 µM: 93.4%
[7]; 500 nM
  % Enzyme Activity (relative to DMSO controls): 85.09%
  remaining activity at 0.5 µM: 86.1%
[8]; 500 nM
  % Enzyme Activity (relative to DMSO controls): 105.68%
  remaining activity at 0.5 µM: 106%
[9]; 500 nM
  % Enzyme Activity (relative to DMSO controls): 96.92%
  remaining activity at 0.5 µM: 98.1%
